Experimental data from patent US6362369B1, “Phthalic acid diamide derivatives fluorine-containing aniline compounds as starting material, agricultural and horticultural insecticides, and a method for application of the insecticides” (Nihon Nohyaku Co., Ltd., priority 1997, dated 2002).

What was measured:
Type in all cases: in vivo
[1] = tested on: rice leafroller (Cnaphalocrocis medinalis); test: Insecticidal effect on rice leafroller (Test Example 3); conditions: 500 ppm, 25° C., humidity 70%; for Insecticidal effect, Test Example 3: rice lamina immersed; for Insecticidal effect, Test Example 3 / Insecticidal effect on rice leafroller (Test Example 3), judged grade: four days after inoculation; for Insecticidal effect on rice leafroller (Test Example 3), judged grade: third-instar larvae
Summary of the method: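 Insecticidal effect is judged by a predefined criterion from dead/alive counts four days after infesting air-dried lamina with third-instar larvae, kept on moistened filter paper at 25° C, 70% humidity.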

[2] = tested on: diamondback moth (Plutella xylostella); test: Insecticidal effect on diamondback moth (Test Example 1); conditions: for Insecticidal effect on diamondback moth (Test Example 1), judged grade: mortality judged according to the criterion shown in Test Example 1
Summary of the method: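 Triplicate groups of 10 insects were scored: six days after immersion of oviposited Chinese cabbage seedlings and holding at 25 °C post air-drying, hatched larvae were counted. Mortality derived from these counts and insecticidal effect judged by a set criterion.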

[3] = tested on: common cutworm (Spodoptera Litura); test: Insecticidal effect on common cutworm (Test Example 2); conditions: 500 ppm, 25° C.; for Insecticidal effect, Test Example 2: cabbage leaf immersed; for Insecticidal effect, Test Example 2 / Insecticidal effect on common cutworm (Test Example 2), judged grade: eight days after inoculation; for Insecticidal effect on common cutworm (Test Example 2), judged grade: second-instar larvae
Summary of the method: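 Insecticidal effect was rated from percent mortality of second-instar larvae exposed to air-dried treatment at 25° C for 8 days.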

[4] = third-instar larvae of rice leafroller
[5] = diamondback moth, judged by the mortality criterion of Test Example 1
[6] = second-instar larvae of common cutworm
[7] = rice leafroller third-instar larvae
[8] = diamondback moth, mortality judged by criterion of Test Example 1
[9] = common cutworm second-instar larvae

SMILES	Insecticidal effect, Test Example 3 [1, 4]	Insecticidal effect, Test Example 1 [2, 5]	Insecticidal effect, Test Example 2 [3, 6]	Insecticidal effect, Test Example 3 [1, 7]	Insecticidal effect, Test Example 1 [2, 8]	Insecticidal effect, Test Example 2 [3, 9]	also measured
Cc1cc(OC(F)(F)C(F)C(F)(F)F)ccc1NC(=O)c1cccc(Br)c1C(=O)NC(C)C (stereo not drawn) [compound 291]	A (100)	A (100)	A (100)				
CCCN(CCC)C(=O)c1c(I)cccc1C(=O)Nc1ccc(OC(F)(F)F)cc1C [compound 1156]				A (100)	A (100)	A (100)	
Cc1cc(C(F)(F)C(F)(F)F)ccc1NC(=O)c1cccc(Cl)c1C(=O)NCc1cccc(Cl)c1Cl [compound 1353]				A (100)	A (100)	A (100)	
Cc1cc(Cl)ccc1NC(=O)c1ccc(Br)c(Br)c1C(=O)NC(C)C [compound 339]	A (100)	A (100)	B (99-90)				
Cc1ccccc1NC(=O)c1cccc([N+](=O)[O-])c1C(=O)NC(C)C [compound 599]							Insecticidal effect on rice leafroller (Test Example 3), judged grade ([1]; rice lamina dip): A (100); Insecticidal effect on diamondback moth (Test Example 1), judged grade [2]: A (100); Insecticidal effect on common cutworm (Test Example 2), judged grade ([3]; cabbage leaf dip): D (79-50)
CC(C)NC(=O)c1c(F)cccc1C(=O)Nc1ccc(C(F)(F)C(F)(F)F)cc1Cl [compound 1516]							Insecticidal effect (Test Example 3), judged from mortality ([1]; rice lamina dip, third-instar larvae of rice leafroller, 4 days after inoculation): A (100); Insecticidal effect (Test Example 1), judged from mortality ([2]; diamondback moth, judged by the criterion of Test Example 1): A (100); Insecticidal effect (Test Example 2), judged from mortality ([3]; cabbage leaf dip, second-instar larvae of common cutworm, 8 days after inoculation): A (100)
CC(C)NC(=O)c1cccc(Cl)c1C(=O)Nc1ccc(Cl)cc1F [compound 212]	A (100)	A (100)	D (79-50)				
CC(C)NC(=O)c1c(F)cccc1C(=O)Nc1ccc(C(F)(F)F)cc1Cl [compound 504]							Insecticidal effect on rice leafroller (Test Example 3), judged grade ([1]; rice lamina dip): A (100); Insecticidal effect on diamondback moth (Test Example 1), judged grade [2]: A (100); Insecticidal effect on common cutworm (Test Example 2), judged grade ([3]; cabbage leaf dip): A (100)
Cc1cc(C(F)(F)C(F)(F)F)ccc1NC(=O)c1cccc(Cl)c1C(=O)NC(C)(C)c1ccccc1 [compound 1417]				A (100)	A (100)	A (100)	
